Key:
[1] = Preclinical trials: animal pharmacology, toxicology and pharmacokinetic studies; parameters: species or system animals; conditions: in vivo
[2] = Clinical trials on healthy volunteers evaluating the effect of food on oral absorption; assay type: in vivo; conditions: for absorption with a meal versus on an empty stomach: oral, area under the curve of plasma SR 57746 concentrations; for required dose relative to the product of Example 5 to obtain the same absorption: absorption = area under the curve of plasma SR 57746 concentrations
Excerpt: The results obtained in vitro were confirmed in vivo by comparing the observations made in two clinical trials on healthy volunteers, the first trial evaluating the effect of food on the oral absorption of the SR 57746 A obtained according to EP 0 101 381, and the second trial evaluating the effect of food on the oral absorption of the SR 57746 A of Example 5 below. In both the trials, the criterion for evaluation of the absorption was the area under the curve of the plasma SR 57746 concentrations as a function of time.

CACO-2 monolayer = CACO-2 monolayer model, in vitro absorption (dissolution and permeability); assay type: in vitro ADME; conditions: Hanks' solution supplemented with 10% of fetal calf serum and taurocholic acid
Experimental: A study concerning the determination of the in vitro absorption of the microparticles according to the present invention was carried out using the CACO-2 monolayer model.

[3] = tested on: amyotrophic lateral sclerosis; conditions: 2 mg/day; cited from earlier work
[4] = Phase I clinical trials on healthy volunteers, oral administration; assay type: in vivo; conditions: administered orally
Excerpt: EP 0 101 381 describes SR 57746 in the form of the hydrochloride, hereafter called SR 57746 A, and this salt was used in preclinical and clinical trials on healthy volunteers (Phase I). According to said document, SR 57746 is isolated by crystallization from ethanol, especially absolute ethanol.

Question: Which “activity and behavior in animal pharmacology and toxicology tests” value [1] does the source give for `FC(F)(F)c1cccc(C2=CCN(CCc3ccc4ccccc4c3)CC2)c1` [SR 57746, 1-[2-(2-Naphthyl)ethyl]-4-(3-trifluoromethylphenyl)-1,2,3,6-tetrahydropyridine] here?
Answer: constant activity and behavior

Question: And the “pharmacokinetic studies on animals” value [1]?
Answer: constant and reproducible results

Question: For `Cl.FC(F)(F)c1cccc(C2=CCN(CCc3ccc4ccccc4c3)CC2)c1` [Example 5], which “absorption with a meal versus on an empty stomach” value [2] is on record?
Answer: the absorption is the same

Question: And the dissolution and permeability (CACO-2 monolayer)?
Answer: rendered uniform

Question: For `Cl.FC(F)(F)c1cccc(C2=CCN(CCc3ccc4ccccc4c3)CC2)c1` [SR 57746 A, 1-[2-(2-naphthyl)ethyl]-4-(3-trifluoromethylphenyl)-1,2,3,6-tetrahydropyridine hydrochloride], which “clinical outcome in amyotrophic lateral sclerosis” value [3] is on record?
Answer: proved promising

Question: And the “variability in the plasma concentrations and the pharmacodynamic effects” value [4]?
Answer: high variability

Question: Which results are given for `Cl.FC(F)(F)c1cccc(C2=CCN(CCc3ccc4ccccc4c3)CC2)c1` [1-[2-(2-naphthyl)ethyl]-4-(3-trifluoromethylphenyl)-1,2,3,6-tetrahydropyridine hydrochloride]?
Answer: required dose relative to the product of Example 5 to obtain the same absorption ([2]; administered on an empty stomach): about nine times greater; required dose relative to the product of Example 5 to obtain the same absorption ([2]; administered with a meal): three to four times greater; absorption with a meal versus on an empty stomach ([2]; hydrochloride): two to three times greater

— patent US20100021541A1, “Microparticulate form of a Tetrahydropyridine derivative” (SANOFI-AVENTIS, priority 1996, published 2010)
